Assay results from article PMC12736951, “Design, Synthesis, and Biological Evaluation of 6″-Modified Apramycin Derivatives to Overcome Aminoglycoside Resistance” (Pharmaceutics, 2025).

Columns and labels:
Assay type in all cases: cell-based
E. coli MAR17-1350 = assay: MIC, MDR clinical isolate; conditions: Escherichia coli, MAR171350; E. coli MAR17-1350, MDR clinical isolate (NDM-5); read-out: MIC
Excerpt: (§1) The microbial strains used in this study were obtained from the collection of the Gause Institute of New Antibiotics. The control strains included in the analysis were S. aureus ATCC 29213, E. coli ATCC 25922, P. aeruginosa ATCC 27853, M. smegmatis ATCC 607. Clinical isolates E. coli MAR17-1350, K. pneumoniae APEX-5, K. pneumoniae MAR14-3395, and K. pneumoniae MAR18-1752 with multidrug resistance, including resistance to aminoglycosides were kindly provided by the Research Institute of Antimicrobial Chemotherapy (RIAC) of the Smolensk State Medical University, Smolensk. The microbial cultures were stored at −75 °C in trypticase soy broth (Becton, Dickinson, France) containing 10–15% glycerol. Storage was carried out in accordance with CLSI guidelines. Prior to experimentation, the bacterial strains were revived from cryopreservation by inoculating them onto trypticase soy agar (Becton, Dickinson, France) and incubating at (36 ± 1) °C for 16–24 h. Individual morphologically homogeneous colonies were then suspended in sterile physiological saline, and the turbidity of the suspension was adjusted to 0.5 McFarland units using a DEN-1 spectrophotometer (Biosan, Riga, Latvia), which corresponds to a concentration of 1.5 × 10^8 CFU/mL.
(§2) The samples were dissolved in sterile distilled water, depending on the physicochemical properties of the compounds under investigation, to a concentration of 10,000 µg/mL. Working solutions were then prepared by serial dilution, resulting in concentrations ranging from 64 µg/mL to 0.125 µg/mL.
(§3) Activity was evaluated by determining the minimum inhibitory concentration (MIC) values using the microdilution method in Mueller–Hinton Broth (Beckton and Dickinson, Le Pont-de-Claix, France), in accordance with the standard procedure for assessing the antimicrobial susceptibility of microorganisms.
(§4) The analysis was conducted in 96-well microtiter plates (Medpolymer, Saint Petersburg, Russia). The bacterial inoculum was introduced within 15 min of preparation. MIC values were determined after incubation for 15–18 h at (36 ± 1) °C. Microbial growth in the presence of the tested compounds was compared to the growth control (without exposure to the test samples). The MIC was defined as the lowest concentration at which visible microbial growth was inhibited.
(§5) To ensure the accuracy of the results, the control antibiotics kanamycin A, gentamycin, and tobramycin (Abcr GmbH, Karlsruhe, Germany) were included, along with standard reference strains: E. coli ATCC 25922. The MIC values for kanamycin A were determined as follows: E. coli ATCC 25922—1–4 µg/mL [22]. For gentamycin, the MIC values were E. coli ATCC 25922–0.25–1 µg/mL [23]. For tobramycin, the MIC values were E. coli ATCC 25922–0.25–1 µg/mL [23]. The MIC values of the reference strains were required to fall within the acceptable ranges specified in [24], provided that standard assay conditions were maintained.

K. pneumoniae APEX-5 = assay: MIC, MDR clinical isolate; conditions: Klebsiella pneumoniae, APEX5; K. pneumoniae APEX-5, MDR clinical isolate (NDM-16); read-out: MIC
Excerpt: as §1, §2, §3, §4, §5

K. pneumoniae MAR14-3395 = assay: MIC, MDR clinical isolate; conditions: Klebsiella pneumoniae, MAR143395; K. pneumoniae MAR14-3395, MDR clinical isolate (NDM-1 + OXA-244); read-out: MIC
Excerpt: as §1, §2, §3, §4, §5

K. pneumoniae MAR18-1752 = assay: MIC, MDR clinical isolate; conditions: Klebsiella pneumoniae, MAR181752; K. pneumoniae MAR18-1752, MDR clinical isolate (NDM-1); read-out: MIC
Excerpt: as §1, §2, §3, §4, §5

E. coli JW5503 kanS = assay: MIC against E. coli JW5503 parent strain; conditions: Escherichia coli, JW5503KANS
Experimental: (§6) The determination of the MIC values was performed on five strains from the working collection of MSU. E. coli JW5503 [25], which lacked a kanamycin resistance cassette that had been removed as per the method outlined in [26], and a strain derived from this strain through in vitro selection with kanamycin. […] Strains containing AG-modifying enzymes were obtained through the transformation of E. coli JW5503 with plasmids that carried cassettes of resistance, namely pCRISPomyces-2–AAC(3)-IV (Addgene #61737), pdualrep2–APH(3′)-II [27] and pt67–ANT(3″). The MIC determination was performed as described for JW5503 in [19].

[1] = test system: HEK293T human embryonic kidney cell line; assay: Cytotoxicity, MTT test; conditions: HEK-293T, 72 h, 2-250 µg/mL, read-out: IC50, viability of HEK293T cells
Experimental: The MTT test was performed in order to evaluate the effect of the compounds on eukaryotic cells’ survivability. Compounds 5a,b, 8a,b, and apramycin, as the reference drug, were tested on HEK293T human embryonic kidney cell line (ATCC). Compounds 5a,b, 8a,b, and apramycin were prepared as water solutions with a 50 mg/mL concentration. The HEK293T cell line was cultivated in DMEM/F-12 medium (Paneco LLC, Moscow, Russia) containing 10% FBS, 50 µg/mL penicillin, and 50 µg/mL streptomycin (Thermo Fisher Scientific, USA) at 37 °C in 5% CO2. Triplicates on 96-well plates were used, and 2500 HEK293T cells were seeded in 140 µL of DMEM/F-12 medium in each well during day one. The next day, compounds in twofold successive dilutions were added to these plates (concentrations in wells ranged between 2 and 250 µg/mL for 5a, 5b, and 8a, 8b). Plates were incubated for 72 h at 37 °C in 5% CO2. Afterwards, 0.5 mg/mL of the MTT reagent (Paneco LLC, Moscow, Russia) was added to each well. After 2 h of incubation, the media with MTT was replaced with 140 µL of DMSO, and all plates were placed on a shaker for 10 min for formazan to dissolve. Finally, the absorbance at a 555 nm wavelength was measured on all plates via the plate reader Victor X5 (PerkinElmer, Waltham, MA, USA). The data were then normalized, and dose–response curves and IC50 were calculated by means of GraphPad Prism version 8.0.2. (GraphPad Software, Inc., San Diego, CA, USA).

[2] = test system: E. coli JW5503 EF-G P610T; assay: MIC against aminoglycoside-resistant EF-G mutant; conditions: Escherichia coli
Experimental: as §6

In the case of `CNC1C(OC2OC(CNCCNC(=N)N)C(N)C(O)C2O)OC2CC(N)C(OC3C(N)CC(N)C(O)C3O)OC2C1O` (stereo not shown) [Compound 8a, 6″-((2-Guanidinoethyl-1)-amino)-6″-deoxyapramycin acetate], the MIC (E. coli MAR17-1350) is reported as 4 µg/mL, the MIC (K. pneumoniae APEX-5) is reported as 1 µg/mL and the MIC (K. pneumoniae MAR14-3395) is reported as 2 µg/mL. For the same compound, the MIC (K. pneumoniae MAR18-1752) was 2 µg/mL, the MIC (E. coli JW5503 kanS) was 8 µg/mL and the IC50 [1] was > 250 µg/mL. It also gave an MIC [2] of 32 µg/mL.
`CNC1C(OC2OC(CNCCN)C(N)C(O)C2O)OC2CC(N)C(OC3C(N)CC(N)C(O)C3O)OC2C1O` (stereo not shown) [Compound 5a, 6″-((2-Aminoethyl-1)-amino)-6″-deoxyapramycin acetate] gave an MIC (E. coli MAR17-1350) of 4 µg/mL, an MIC (K. pneumoniae APEX-5) of 4 µg/mL and an MIC (K. pneumoniae MAR14-3395) of 4 µg/mL. It also gave an MIC (K. pneumoniae MAR18-1752) of 4 µg/mL, an MIC (E. coli JW5503 kanS) of 16 µg/mL and an IC50 [1] of 243 ± 7 µg/mL. It also gave an MIC [2] of 32 µg/mL.
In the case of `CNC1C(OC2OC(CNCCCN)C(N)C(O)C2O)OC2CC(N)C(OC3C(N)CC(N)C(O)C3O)OC2C1O` (stereo not shown) [Compound 5b, 6″-((3-Aminopropyl-1)-amino)-6″-deoxyapramycin acetate], the MIC (E. coli MAR17-1350) is reported as 8 µg/mL, the MIC (K. pneumoniae APEX-5) is reported as 8 µg/mL and the MIC (K. pneumoniae MAR14-3395) is reported as 8 µg/mL. The MIC (K. pneumoniae MAR18-1752) was 8 µg/mL, the MIC (E. coli JW5503 kanS) was 32 µg/mL and the IC50 [1] was > 250 µg/mL. The MIC [2] was 64 µg/mL.
`CNC1C(OC2OC(CNCCCNC(=N)N)C(N)C(O)C2O)OC2CC(N)C(OC3C(N)CC(N)C(O)C3O)OC2C1O` (stereo not shown) [Compound 8b, 6″-((3-Guanidinopropyl-1)-amino)-6″-deoxyapramycin acetate] was tested, and the MIC (E. coli MAR17-1350) was 4 µg/mL, the MIC (K. pneumoniae APEX-5) was 2 µg/mL and the MIC (K. pneumoniae MAR14-3395) was 4 µg/mL. For the same compound, the MIC (K. pneumoniae MAR18-1752) was 2 µg/mL, the MIC (E. coli JW5503 kanS) was 16 µg/mL and the IC50 [1] was > 250 µg/mL. It also gave an MIC [2] of 64 µg/mL.
